From ChEMBL document CHEMBL1141300, “Putrescine bisamides from Aglaia gigantea” (J Nat Prod, 2007)
The source made the active and inactive calls. No cut-off for these calls is given here.

System: Spodoptera littoralis
Experiment: Insecticidal activity against Spodoptera littoralis after 6 days
Type: functional, organism-based

`C=C(C(=O)NCCCCNC(=O)/C=C/c1ccccc1)[C@@H](O)CO` was tested, and the Activity was “inactive”.
In the case of `CC1=CC(O)N(CCCCNC(=O)/C=C/c2ccccc2)C1=O` (configuration not stated), the Activity is reported as “inactive”.
